This is an account of results in PubChem BioAssay AID1963862 (Molecular Pharmacology Branch, DTP, NCI, 2024).

Each structure is given as a SMILES string.

This assay deals with KRAS patient-derived spheroids with HUVEC/MSC, viability. The assay is described as follows: Anticancer human tumor 941728-121-R-J1-PDC patient-derived lung adenocarcinoma cell line growth inhibition [KRAS2]. The note with it: for viability, T/C: stronger effect = lower value. In short, it runs like this: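 KRAS-mutant tumor cells were grown as spheroids with HUVEC endothelial cells and human MSCs as stroma. Targeted agents were tested alone and with KRAS pathway inhibitors. Doses started at or near clinical Cmax, or 10 microM, descending half-log.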

[1] abbreviates: curve of first compound, second compound 0.1 µM.
The mark [2] stands for this setting: curve of first compound, second compound 0.316 µM.
Where [3] appears, read: curve of first compound, second compound 1 µM.
The mark [4] stands for this setting: curve of first compound, second compound 3.16 µM.
The mark [5] stands for this setting: curve of first compound, second compound 10 µM.
Setting [6] is: second compound 0.1 µM, first compound 0.0001 µM.
[7] abbreviates: second compound 0.1 µM, first compound 0.000316 µM.
The mark [8] stands for this setting: second compound 0.1 µM, first compound 0.001 µM.
Setting [9] is: second compound 0.1 µM, first compound 0.00316 µM.
Setting [10] is: second compound 0.1 µM, first compound 0.01 µM.
[11] abbreviates: second compound 0.1 µM, first compound 0.0316 µM.
Where [12] appears, read: second compound 0.316 µM, first compound 0.0001 µM.
Where [13] appears, read: second compound 0.316 µM, first compound 0.000316 µM.
Where [14] appears, read: second compound 0.316 µM, first compound 0.001 µM.
Where [15] appears, read: second compound 0.316 µM, first compound 0.00316 µM.
The mark [16] stands for this setting: second compound 0.316 µM, first compound 0.01 µM.
The mark [17] stands for this setting: second compound 0.316 µM, first compound 0.0316 µM.
Setting [18] is: second compound 1 µM, first compound 0.0001 µM.
[19] abbreviates: second compound 1 µM, first compound 0.000316 µM.
Setting [20] is: second compound 1 µM, first compound 0.001 µM.
Where [21] appears, read: second compound 1 µM, first compound 0.00316 µM.
Setting [22] is: second compound 1 µM, first compound 0.01 µM.
Where [23] appears, read: second compound 1 µM, first compound 0.0316 µM.
[24] abbreviates: second compound 3.16 µM, first compound 0.0001 µM.
Where [25] appears, read: second compound 3.16 µM, first compound 0.000316 µM.
[26] abbreviates: second compound 3.16 µM, first compound 0.001 µM.
The mark [27] stands for this setting: second compound 3.16 µM, first compound 0.00316 µM.
[28] abbreviates: second compound 3.16 µM, first compound 0.01 µM.
Where [29] appears, read: second compound 3.16 µM, first compound 0.0316 µM.
Setting [30] is: second compound 10 µM, first compound 0.0001 µM.
[31] abbreviates: second compound 10 µM, first compound 0.000316 µM.
Setting [32] is: second compound 10 µM, first compound 0.001 µM.
The mark [33] stands for this setting: second compound 10 µM, first compound 0.00316 µM.
The mark [34] stands for this setting: second compound 10 µM, first compound 0.01 µM.
Where [35] appears, read: second compound 10 µM, first compound 0.0316 µM.
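Further: spheroids exposed to agents for seven days before readout.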

Regarding `CN(C)C/C=C/C(=O)Nc1cc2c(Nc3ccc(F)c(Cl)c3)ncnc2cc1O[C@H]1CCOC1`, the viability, T/C by setting is: (compound 0.000316 µM) 89.4% [middle of 5 runs]; (compound 0.001 µM) 78.7% [middle of 5 runs]; (compound 0.00316 µM) 63.7% [middle of 5 runs]; (compound 0.01 µM) 61.1% [middle of 5 runs]; (compound 0.0316 µM) 57.2% [middle of 5 runs]; (compound 0.1 µM) 62.2% [middle of 5 runs]. For the same compound, the IC50 (curve of compound) is above 100 nM.

In the case of `CNCc1ccccc1-c1csc(C(C)Nc2nc(C)nc3cc(OC)c(OC)cc23)c1` (centres undefined), the viability, T/C (compound 10 µM) was 0.17% [middle of 15 runs]. In addition, under “compound alone, run of 07/19/2021”, the IC50 is 112 nM [middle of 5 runs].

For the compound `CC(=O)Nc1cccc(-n2c(=O)n(C3CC3)c(=O)c3c(Nc4ccc(I)cc4F)n(C)c(=O)c(C)c32)c1` + CC1OCC2(CCN(c3cnc(Sc4ccnc(N)c4Cl)c(N)n3)CC2)C1N, the IC50 by setting is: under setting [1], below 0.1 nM; under setting [2], below 0.1 nM; under setting [3], below 0.1 nM; under setting [4], below 0.1 nM; under setting [5], below 0.1 nM. Moreover, the viability, T/C is, setting by setting: under setting [6], 47.1%; under setting [7], 40.5%; under setting [8], 40.2%; under setting [9], 39.1%; under setting [10], 36.4%; under setting [11], 27.9%. Moreover, the viability, T/C by setting is: under setting [12], 38.1%; under setting [13], 39.2%; under setting [14], 34.3%; under setting [15], 30.9%; under setting [16], 26.4%; under setting [17], 23.1%. In addition, the viability, T/C is, setting by setting: under setting [18], 32.4%; under setting [19], 31.1%; under setting [20], 24.8%; under setting [21], 22%; under setting [22], 21.4%; under setting [23], 18.2%. For the same compound, the viability, T/C reads like this: under setting [24], 21.6%; under setting [25], 17.2%; under setting [26], 14.5%; under setting [27], 15.1%; under setting [28], 14.5%; under setting [29], 13.6%. The viability, T/C reads like this: under setting [30], 15.2%; under setting [31], 12.9%; under setting [32], 11.8%; under setting [33], 10.4%; under setting [34], 12.7%; under setting [35], 10.6%.

For the compound `CC(=O)Nc1cccc(-n2c(=O)n(C3CC3)c(=O)c3c(Nc4ccc(I)cc4F)n(C)c(=O)c(C)c32)c1` + CNCc1ccccc1-c1csc(C(C)Nc2nc(C)nc3cc(OC)c(OC)cc23)c1, the IC50 was 0.119 nM under setting [1]; below 0.1 nM under setting [2]; below 0.1 nM under setting [3]; below 0.1 nM under setting [4]; below 0.1 nM under setting [5]. Moreover, the viability, T/C is 51.3% under setting [6]; 46.8% under setting [7]; 38.1% under setting [8]; 37.7% under setting [9]; 35.7% under setting [10]; 27.9% under setting [11]. In addition, the viability, T/C runs as follows: under setting [12], 44.4%; under setting [13], 44.1%; under setting [14], 34.2%; under setting [15], 31.8%; under setting [16], 30.5%; under setting [17], 21.9%. Moreover, the viability, T/C was 35.3% under setting [18]; 33% under setting [19]; 26.8% under setting [20]; 23% under setting [21]; 14% under setting [22]; 7.52% under setting [23]. The viability, T/C is, setting by setting: under setting [24], 0.3%; under setting [25], 0.14%; under setting [26], 0.76%; under setting [27], 0.17%; under setting [28], 0.16%; under setting [29], 0.25%. The viability, T/C is, setting by setting: under setting [30], 0.16%; under setting [31], 0.16%; under setting [32], 0.17%; under setting [33], 0.15%; under setting [34], 0.14%; under setting [35], 0.26%.

On to `COc1cc2nccc(Oc3ccc(NC(=O)C4(C(=O)Nc5ccc(F)cc5)CC4)cc3)c2cc1OC` + COc1cc2nc(C)nc(NC(C)c3cc(N)cc(C(F)(F)F)c3)c2cc1OC1CCOC1, for which the IC50 reads like this: under setting [1], 144 nM; under setting [2], below 31.6 nM; under setting [3], below 31.6 nM; under setting [4], below 31.6 nM; under setting [5], below 31.6 nM. For the same compound, the viability, T/C under setting [11] was 57.4%; the viability, T/C (second compound 0.1 µM, first compound 0.1 µM) is 55.2%; the viability, T/C (second compound 0.1 µM, first compound 0.316 µM) is 38.9%; the viability, T/C (second compound 0.1 µM, first compound 1 µM) is 25.9%; the viability, T/C (second compound 0.1 µM, first compound 3.16 µM) is 31.4%; the viability, T/C (second compound 0.1 µM, first compound 10 µM) is 57.4%. Besides, the viability, T/C is 34.7% under setting [17]; 41.7% (second compound 0.316 µM, first compound 0.1 µM); 27.6% (second compound 0.316 µM, first compound 0.316 µM); 17.3% (second compound 0.316 µM, first compound 1 µM); 21.7% (second compound 0.316 µM, first compound 3.16 µM); 35.6% (second compound 0.316 µM, first compound 10 µM). For the same compound, the viability, T/C was 25.5% under setting [23]; 29.6% (second compound 1 µM, first compound 0.1 µM); 23.3% (second compound 1 µM, first compound 0.316 µM); 9.41% (second compound 1 µM, first compound 1 µM); 17.2% (second compound 1 µM, first compound 3.16 µM); 29.5% (second compound 1 µM, first compound 10 µM). The viability, T/C is 30.9% under setting [29]; 35.1% (second compound 3.16 µM, first compound 0.1 µM); 19.7% (second compound 3.16 µM, first compound 0.316 µM); 3.69% (second compound 3.16 µM, first compound 1 µM); 0.11% (second compound 3.16 µM, first compound 3.16 µM); 35.2% (second compound 3.16 µM, first compound 10 µM). Besides, the viability, T/C under setting [35] was 13.3%; the viability, T/C (second compound 10 µM, first compound 0.1 µM) was 2.98%; the viability, T/C (second compound 10 µM, first compound 0.316 µM) is 1.83%; the viability, T/C (second compound 10 µM, first compound 1 µM) was 0.25%; the viability, T/C (second compound 10 µM, first compound 3.16 µM) was 0.13%; the viability, T/C (second compound 10 µM, first compound 10 µM) was 15.1%.
